Assay results taken from patent publication US11672813B2, “Bortezomib compositions” (MAIA Pharmaceuticals, Inc., priority 2021, dated 2023).

Experiments:
[1] = Estimated solubility of bortezomib in select non-aqueous solvents (visual, incremental solvent addition); format: physicochemical; conditions: for Observation: approximately 25 mg
Description: The appearance of the solution was recorded.

[2] = Visual dissolution and physical stability of bortezomib formulations with low concentrations of benzyl alcohol or DMSO in water; format: physicochemical; conditions: target 2.5 mg/mL; benzyl alcohol (2% v/v), DMSO (5% v/v) or combination, water added afterwards
Description: Initial formulation experiments with low concentrations of various non-aqueous solvents were conducted targeting a bortezomib concentration of 2.5 mg/mL. Attempts to solubilize bortezomib were conducted using low concentrations of benzyl alcohol (2% v/v), or dimethyl sulfoxide (5% v/v), or a combination of these solvents. […] For these formulations, the non-aqueous solvent was added to bortezomib to dissolve it, followed by addition of water to the bortezomib-solvent mixture.
Various concentrations of DMSO were explored as the non-aqueous component of the formulation (2% v/v to 5% v/v in water). Bortezomib was first completely dissolved in the batch volume of DMSO to form a concentrated “premix” solution prior to making up the batch to the target concentration (2.5 mg/mL) with water. This was done to facilitate the subsequent dissolution of bortezomib in the aqueous component.

Observation ([1]; N-methyl pyrrolidone (NMP)): Completely dissolved after 1 mL
Observation: solvent needed to dissolve approximately 25 mg ([1]; alcohol (ethanol)): Approximately 5.5 mL of solvent
Observation ([1]; benzyl alcohol): Completely dissolved after 0.5 mL
Observation ([1]; dimethyl sulfoxide (DMSO)): Completely dissolved after 0.5 mL
Observation ([1]; glycerol, up to 10 mL): No significant dissolution observed up
Observation ([1]; polyethylene glycol 400, up to 10 mL): No significant dissolution observed up
Observation: solvent needed to dissolve approximately 25 mg ([1]; propylene glycol): Approximately 7 mL of solvent needed
Outcome of dissolution attempt [2]: precipitated after addition of water
Compound: CC(C)C[C@H](NC(=O)[C@H](Cc1ccccc1)NC(=O)c1cnccn1)B(O)O [Bortezomib, [(1R)-3-methyl-1-[[(2S)-1-oxo-3-phenyl-2-[(pyrazinylcarbonyl)amino]propyl]amino]butyl] boronic acid]
